Columns and labels:
Oryctolagus cuniculus [1] = organism: Oryctolagus cuniculus; experiment: Corneal penetration rate constant (k) for excised denuded cornea of albino rabbit; type: functional
Oryctolagus cuniculus [2] = organism: Oryctolagus cuniculus; experiment: Corneal penetration rate constant (k) for excised intact cornea of albino rabbit; type: functional
[3] = Cleavage by corneal esterase at 37 degree C and at pH 7.4; type: ADME, tissue-based, Cornea
Carbonic anhydrase 2 [4] = target: T1, Carbonic anhydrase 2 (Homo sapiens, UniProt P00918)
Description: In vitro inhibition of human Carbonic Anhydrase II

Oryctolagus cuniculus [5] = organism: Oryctolagus cuniculus; experiment: Change in intraocular pressure in Albino rabbit when 10% of compound suspension bilaterally instilled in 3 doses of 20, 15 and 15 microL at 5 minute intervals determined by recovery rate assay; type: functional, Eye
Oryctolagus cuniculus [6] = organism: Oryctolagus cuniculus; experiment: Change in intraocular pressure in Albino rabbit when 2% suspension of compound bilaterally instilled in a single dose of 50 microL determined by recovery rate assay; type: functional, Eye
Oryctolagus cuniculus [7] = experiment: Maximum decrease in intraocular pressure in Albino rabbit during 5 hours observation period after topical instillation of 1% suspension in alpha-Chymotrypsin assay; type: functional, Eye
Oryctolagus cuniculus [8] = organism: Oryctolagus cuniculus; experiment: Change in intraocular pressure in Albino rabbit when 5% of compound suspension bilaterally instilled in 3 doses of 20, 15 and 15 microL at 5 minute intervals determined by recovery rate assay; type: functional, Eye
Carbonic anhydrase 2 [9] = target: T1, Carbonic anhydrase 2; experiment: In vitro inhibitory activity against human Carbonic anhydrase II; details: read-out: I50
Oryctolagus cuniculus [10] = experiment: Maximum decrease in intraocular pressure in Albino rabbit during 5 hours observation period after topical instillation of 5% suspension in alpha-Chymotrypsin assay; type: functional, Eye
[11] = In vitro susceptibility to nucleophilic attack by reduced glutathione at 37 degree C and at pH 7.4; type: ADME
Oryctolagus cuniculus [12] = experiment: Maximum decrease in intraocular pressure in Albino rabbit during 5 hours observation period after topical instillation of 0.5% suspension in alpha-Chymotrypsin assay; type: functional, Eye
Oryctolagus cuniculus [13] = organism: Oryctolagus cuniculus; experiment: Change in intraocular pressure in Albino rabbit when 1% suspension of compound bilaterally instilled in a single dose of 50 microL determined by recovery rate assay; type: functional, Eye
Oryctolagus cuniculus [14] = experiment: Maximum decrease in intraocular pressure in Albino rabbit during 5 hours observation period after topical instillation of 5% suspension; type: functional, Eye
Oryctolagus cuniculus [15] = organism: Oryctolagus cuniculus; experiment: % change in intraocular pressure in Albino rabbit when 10% suspension bilaterally instilled in 3 divided doses of 20, 15 and 15 microL at 5 minute intervals determined by recovery rate assay; type: functional
Oryctolagus cuniculus [16] = experiment: Maximum decrease in intraocular pressure in Albino rabbit during 5 hours observation period after topical instillation of 0.5% suspension; type: functional, Eye
Oryctolagus cuniculus [17] = organism: Oryctolagus cuniculus; experiment: Change in intraocular pressure in Albino rabbit when 2% of compound suspension instilled in a single dose of 50 microL determined by recovery rate assay
Oryctolagus cuniculus [18] = experiment: Maximum decrease in intraocular pressure in Albino rabbit during 5 hours observation period after topical instillation of 1% suspension; type: functional, Eye

For CCCCCC(=O)Oc1ccc2nc(S(N)(=O)=O)sc2c1, the K (Oryctolagus cuniculus [1]) was 0.0182 h⁻¹, the K (Oryctolagus cuniculus [2]) was 0.0152 h⁻¹ and the half-life [3] was 2 min. The IC50 (Carbonic anhydrase 2 [4]) was 4 nM.

For CCCCCCCC(=O)Oc1ccc2nc(S(N)(=O)=O)sc2c1, the Change (Oryctolagus cuniculus [5]) was -33%, the Change (Oryctolagus cuniculus [6]) was -16% and the Pressure (Oryctolagus cuniculus [7]) was -5 mmHg. It also gave a Change (Oryctolagus cuniculus [8]) of -29% and an IC50 (Carbonic anhydrase 2 [9]) of 1.6 nM.

In the case of CC(C)(C)C(=O)Oc1ccc2nc(S(N)(=O)=O)sc2c1, the Change (Oryctolagus cuniculus [5]) is reported as -47%, the Pressure (Oryctolagus cuniculus [10]) is reported as -9.2 mmHg and the Reaction [11] is reported as 50%. It also gave a Pressure (Oryctolagus cuniculus [12]) of -6.5 mmHg, a Change (Oryctolagus cuniculus [13]) of -16% and a Change (Oryctolagus cuniculus [6]) of -30%. The Pressure (Oryctolagus cuniculus [7]) was -8.2 mmHg, the Change (Oryctolagus cuniculus [8]) was -41% and the half-life [3] was 38 min.

Compound CCOC(C)(C)C(=O)Oc1ccc2nc(S(N)(=O)=O)sc2c1 has a K (Oryctolagus cuniculus [1]) of 0.0162 h⁻¹, a K (Oryctolagus cuniculus [2]) of 0.0373 h⁻¹ and a half-life [3] of 64 min. For the same compound, the IC50 (Carbonic anhydrase 2 [4]) was 1.2 nM.

NS(=O)(=O)c1nc2cc(O)ccc2s1 showed an IC50 (Carbonic anhydrase 2 [4]) of 5 nM.

In the case of NS(=O)(=O)c1nc2ccc(OC(=O)c3ccccc3)cc2s1, the Change (Oryctolagus cuniculus [5]) is reported as -25%, the K (Oryctolagus cuniculus [1]) is reported as 0.0152 h⁻¹ and the Reaction [11] is reported as 50%. The K (Oryctolagus cuniculus [2]) was 0.035 h⁻¹, the Change (Oryctolagus cuniculus [8]) was 11% and the IC50 (Carbonic anhydrase 2 [9]) was 8 nM. For the same compound, the half-life [3] was 30 min.

CN(C)C(=O)Oc1ccc2nc(S(N)(=O)=O)sc2c1 showed a Change (Oryctolagus cuniculus [5]) of -32%, a Change (Oryctolagus cuniculus [8]) of 2% and an IC50 (Carbonic anhydrase 2 [4]) of 1.6 nM.

In the case of CCN(CC)CC1CCC(C(=O)Oc2ccc3nc(S(N)(=O)=O)sc3c2)CC1 (configuration not stated), the IC50 (Carbonic anhydrase 2 [4]) is reported as 2.8 nM.

Compound CC(=O)Nc1nnc(S(N)(=O)=O)s1 [ACETAZOLAMIDE] has a Reaction [11] of 3%.

With NS(=O)(=O)c1nc2ccc(OC(=O)/C=C/c3ccccc3)cc2s1 the IC50 (Carbonic anhydrase 2 [9]) was 15 nM.

For CCOC(=O)Oc1ccc2nc(S(N)(=O)=O)sc2c1, the Pressure (Oryctolagus cuniculus [14]) was -5.5 mmHg, the K (Oryctolagus cuniculus [1]) was 0.0145 h⁻¹ and the Change (Oryctolagus cuniculus [15]) was -29%. It also gave a K (Oryctolagus cuniculus [2]) of 0.0402 h⁻¹, a half-life [3] of 19 min and an IC50 (Carbonic anhydrase 2 [4]) of 6.8 nM.

With CC(C)(C)C(=O)Nc1c(OC(=O)C(C)(C)C)ccc2nc(S(N)(=O)=O)sc12 the IC50 (Carbonic anhydrase 2 [4]) was 32 nM.

CCCC(=O)Oc1ccc2sc(S(N)(=O)=O)nc2c1 showed a Change (Oryctolagus cuniculus [5]) of -54% and an IC50 (Carbonic anhydrase 2 [4]) of 4 nM.

CCOP(=O)(OCC)Oc1ccc2nc(S(N)(=O)=O)sc2c1 showed a Change (Oryctolagus cuniculus [5]) of -22% and an IC50 (Carbonic anhydrase 2 [4]) of 1.8 nM.

CC(=O)Oc1ccc2nc(S(N)(=O)=O)sc2c1 showed a Change (Oryctolagus cuniculus [5]) of -47%, a K (Oryctolagus cuniculus [1]) of 0.0217 h⁻¹ and a Change (Oryctolagus cuniculus [13]) of -10%. The Change (Oryctolagus cuniculus [6]) was -35%, the K (Oryctolagus cuniculus [2]) was 0.0165 h⁻¹ and the Pressure (Oryctolagus cuniculus [7]) was -8.8 mmHg. It also gave a Change (Oryctolagus cuniculus [8]) of -42%, a half-life [3] of 22 min and an IC50 (Carbonic anhydrase 2 [4]) of 2 nM.

With NS(=O)(=O)c1nc2ccc(OC(=O)Cc3ccc(Cl)cc3)cc2s1 the IC50 (Carbonic anhydrase 2 [9]) was 10 nM.

CC(C)C(=O)Oc1ccc2nc(S(N)(=O)=O)sc2c1 showed a Change (Oryctolagus cuniculus [5]) of -30%, a Pressure (Oryctolagus cuniculus [10]) of -6.2 mmHg and a K (Oryctolagus cuniculus [1]) of 0.0162 h⁻¹. For the same compound, the Reaction [11] was 50%, the Pressure (Oryctolagus cuniculus [12]) was -9.3 mmHg and the Change (Oryctolagus cuniculus [13]) was -38%. The Change (Oryctolagus cuniculus [6]) was -48%, the K (Oryctolagus cuniculus [2]) was 0.045 h⁻¹ and the Pressure (Oryctolagus cuniculus [7]) was -6.8 mmHg. For the same compound, the Change (Oryctolagus cuniculus [8]) was -33%, the half-life [3] was 9 min and the IC50 (Carbonic anhydrase 2 [4]) was 6.8 nM.

NS(=O)(=O)c1nc2ccc(O)cc2s1 gave a Reaction [11] of 27%.

CN(C)Cc1ccc(C(=O)Oc2ccc3nc(S(N)(=O)=O)sc3c2)cc1 showed an IC50 (Carbonic anhydrase 2 [9]) of 4 nM.

In the case of CCCCCCCCCCCC(=O)Oc1ccc2nc(S(N)(=O)=O)sc2c1, the Change (Oryctolagus cuniculus [5]) is reported as -25% and the IC50 (Carbonic anhydrase 2 [9]) is reported as 3.1 nM.

Cn1cccc1C(=O)Oc1ccc2nc(S(N)(=O)=O)sc2c1 showed a Change (Oryctolagus cuniculus [5]) of -12% and an IC50 (Carbonic anhydrase 2 [4]) of 2.9 nM.

Compound COc1cccc(OC)c1C(=O)Oc1ccc2nc(S(N)(=O)=O)sc2c1 has an IC50 (Carbonic anhydrase 2 [4]) of 4 nM.

CN(C)OS(=O)(=O)c1ccc2nc(S(N)(=O)=O)sc2c1 showed an IC50 (Carbonic anhydrase 2 [4]) of 1.2 nM.

CN(C)c1ccc(C(=O)Oc2ccc3nc(S(N)(=O)=O)sc3c2)cc1 showed a Change (Oryctolagus cuniculus [5]) of 7% and an IC50 (Carbonic anhydrase 2 [9]) of 60 nM.

For COCC(=O)Oc1ccc2nc(S(N)(=O)=O)sc2c1, the IC50 (Carbonic anhydrase 2 [4]) was 3.5 nM.

NS(=O)(=O)c1nc2ccc(OC(=O)Cc3ccccc3)cc2s1 gave a Change (Oryctolagus cuniculus [5]) of -48%, a Pressure (Oryctolagus cuniculus [12]) of -2.5 mmHg and a Change (Oryctolagus cuniculus [6]) of 13%. It also gave a Pressure (Oryctolagus cuniculus [7]) of -6.8 mmHg, a Change (Oryctolagus cuniculus [8]) of 4% and an IC50 (Carbonic anhydrase 2 [9]) of 30 nM.

For COCCOC(C)(C)C(=O)Oc1ccc2nc(S(N)(=O)=O)sc2c1, the K (Oryctolagus cuniculus [1]) was 0.015 h⁻¹, the K (Oryctolagus cuniculus [2]) was 0.0097 h⁻¹ and the half-life [3] was 72 min. It also gave an IC50 (Carbonic anhydrase 2 [4]) of 1.4 nM.

With CC(C)COC(=O)Oc1ccc2nc(S(N)(=O)=O)sc2c1 the Pressure (Oryctolagus cuniculus [16]) was -5.7 mmHg, the Change (Oryctolagus cuniculus [5]) was -46% and the K (Oryctolagus cuniculus [1]) was 0.0212 h⁻¹. For the same compound, the Reaction [11] was 50%, the Change (Oryctolagus cuniculus [17]) was -22% and the K (Oryctolagus cuniculus [2]) was 0.0812 h⁻¹. It also gave a Change (Oryctolagus cuniculus [8]) of -54%, a half-life [3] of 7 min and an IC50 (Carbonic anhydrase 2 [4]) of 2.2 nM. It also gave a Pressure (Oryctolagus cuniculus [18]) of -6.7 mmHg.

CCCC(=O)Oc1ccc2nc(S(N)(=O)=O)sc2c1 gave a Change (Oryctolagus cuniculus [5]) of -50%, a K (Oryctolagus cuniculus [1]) of 0.0202 h⁻¹ and a Pressure (Oryctolagus cuniculus [12]) of -5.5 mmHg. For the same compound, the Change (Oryctolagus cuniculus [13]) was -25%, the Change (Oryctolagus cuniculus [6]) was -30% and the K (Oryctolagus cuniculus [2]) was 0.054 h⁻¹. The Pressure (Oryctolagus cuniculus [7]) was -6.8 mmHg, the Change (Oryctolagus cuniculus [8]) was -46% and the half-life [3] was 6 min. The IC50 (Carbonic anhydrase 2 [4]) was 3.2 nM.

Compound NS(=O)(=O)c1nc2ccc(OC(=O)CC3CCCC3)cc2s1 has an IC50 (Carbonic anhydrase 2 [9]) of 6 nM.

In the case of CCOCCOCCOC(C)(C)C(=O)Oc1ccc2nc(S(N)(=O)=O)sc2c1, the Change (Oryctolagus cuniculus [5]) is reported as -22%, the Change (Oryctolagus cuniculus [6]) is reported as -21% and the Pressure (Oryctolagus cuniculus [7]) is reported as -9 mmHg. It also gave an IC50 (Carbonic anhydrase 2 [4]) of 3.2 nM.

In the case of CC(=O)/N=c1/sc(S(N)(=O)=O)nn1C [METHAZOLAMIDE], the Reaction [11] is reported as 27% and the K (Oryctolagus cuniculus [2]) is reported as 0.0041 h⁻¹.

With NS(=O)(=O)c1nc2ccc(OC(=O)C3CCCCC3)cc2s1 the Change (Oryctolagus cuniculus [5]) was -34%, the K (Oryctolagus cuniculus [1]) was 0.0175 h⁻¹ and the Reaction [11] was 50%. It also gave a Pressure (Oryctolagus cuniculus [12]) of -4.6 mmHg, a K (Oryctolagus cuniculus [2]) of 0.0712 h⁻¹ and a Pressure (Oryctolagus cuniculus [7]) of -9.8 mmHg. The half-life [3] was 2 min and the IC50 (Carbonic anhydrase 2 [4]) was 6 nM.

Compound CC(C)(C)C(=O)Oc1ccc2nc(S(N)(=O)=O)sc2c1N has an IC50 (Carbonic anhydrase 2 [9]) of 25 nM.

Work on COC(C)(C)C(=O)Oc1ccc2nc(S(N)(=O)=O)sc2c1 yielded a K (Oryctolagus cuniculus [1]) of 0.019 h⁻¹, a K (Oryctolagus cuniculus [2]) of 0.0222 h⁻¹ and a half-life [3] of 36 min. For the same compound, the IC50 (Carbonic anhydrase 2 [4]) was 1.2 nM.

CCOc1ccc2nc(S(N)(=O)=O)sc2c1 [ETHOXZOLAMIDE] showed a Reaction [11] of 36%.

Work on CC(C)(C)OC(=O)Oc1ccc2nc(S(N)(=O)=O)sc2c1 yielded an IC50 (Carbonic anhydrase 2 [4]) of 10 nM.

Reference: ChEMBL document CHEMBL1124628, “Topically active carbonic anhydrase inhibitors. 1. O-acyl derivatives of 6-hydroxybenzothiazole-2-sulfonamide” (J Med Chem, 1989)
